These results are taken from paper PMC11873239, “A covalent chemical probe for Chikungunya nsP2 cysteine protease with antialphaviral activity and proteome-wide selectivity” (Scientific Reports, 2025).

Like-named read-outs stand apart in the source and are kept apart here. Where only a bound is given, the exact number is not on record here.

The test system of experiment [1] is EEEV-nLuc replicon. Briefly: microbe, parasite or virus in culture. The note with it: Eastern equine encephalitis virus, Fibroblast, in Homo sapiens, 24 h, read-out: IC50 (EEEV-nLuc replicon). In general terms: A replicon is a self-replicating genome or part of one, used to study replication in cells.
Experiment [2] relates to 20 human cysteine proteases and three viral cysteine proteases.
Experiment [3] relates to EEEV-nLuc replicon. The note with it: read-out: IC50 (EEEV-nLuc replicon).
Another experiment deals with CHIKV nsP2pro (Chikungunya virus, UniProt F2YI08). The note with it: read-out: IC50 (CHIKV nsP2pro inhibition); cited from earlier work.

Usually IC50 stands for the concentration that gives 50% inhibition. In the case of `CCOc1ccccc1-c1cc(C(=O)NC/C=C/S(C)(=O)=O)on1` [Compound 3, (E)−3-(2-ethoxyphenyl)-N-(3-(methylsulfonyl)allyl)isoxazole-5-carboxamide], the IC50 in the experiment on EEEV-nLuc replicon [1] and in the experiment with EEEV-nLuc replicon [3] was 930 nM each time. Further, in experiment [2], the “inhibition across cysteine protease panel” value is “no significant inhibition”.

Take `CCOc1ccccc1-c1cc2n(n1)C(CS(C)(=O)=O)CNC2=O` (stereo not shown) [Compound 2]: the IC50 on CHIKV nsP2pro was more than 40000 nM.
